# Molecular target: human NK-3 receptor (Homo sapiens (Human), UniProt P29371)
# Test: 3H-SB222200 binding competition assay with human NK-3 receptor
# Conditions: 3H-SB222200 displacement, CHO cell membranes expressing human NK3 receptor; read-out: Ki range
# Outline: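 Radioligand displacement: 5 nM tritiated SB222200 competed by varying compound concentrations on recombinant CHO membranes bearing human NK3, buffer pH 7.4 with HEPES, NaCl, CaCl2, MgCl2, BSA and saponin. Filter-bound radioactivity quantified; calculated Ki given as ranges from +++ (<500 nM) to # (>5 μM).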
# human NK-3 receptor, sequence (P29371 whole entry): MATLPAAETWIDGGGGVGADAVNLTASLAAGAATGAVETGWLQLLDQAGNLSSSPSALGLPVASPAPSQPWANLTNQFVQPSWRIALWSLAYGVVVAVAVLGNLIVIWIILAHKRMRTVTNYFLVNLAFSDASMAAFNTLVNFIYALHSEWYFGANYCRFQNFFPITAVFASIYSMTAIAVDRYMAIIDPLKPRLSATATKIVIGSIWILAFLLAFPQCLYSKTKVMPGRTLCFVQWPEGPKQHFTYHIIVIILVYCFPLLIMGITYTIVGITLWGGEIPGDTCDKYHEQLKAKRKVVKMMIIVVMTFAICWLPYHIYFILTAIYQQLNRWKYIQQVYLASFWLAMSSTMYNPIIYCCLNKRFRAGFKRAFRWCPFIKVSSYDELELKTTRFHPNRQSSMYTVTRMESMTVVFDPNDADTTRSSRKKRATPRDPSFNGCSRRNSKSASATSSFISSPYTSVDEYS
row,Structure (SMILES),Ki
1,"CC1c2nnc(-c3nc(-c4ccccc4)no3)n2CCN1C(=O)c1ccc(-c2cccs2)cc1 (stereo not shown) [Compound 85, (8-methyl-3-(3-phenyl-1,2,4-oxadiazol-5-yl)-5,6-dihydro-[1,2,4]triazolo[4,3-a]pyrazin-7(8H)-yl)(4-(thiophen-2-yl)phenyl)methanone]",< 500 nM
2,"O=C(c1ccc(F)cc1)N1CCn2c(nnc2-c2nc(-c3ccccc3)no2)C1 [Compound 172, (4-fluorophenyl)(3-(3-phenyl-1,2,4-oxadiazol-5-yl)-5,6-dihydro-[1,2,4]triazolo[4,3-a]pyrazin-7(8H)-yl)methanone]",< 500 nM
3,"O=C(c1ccc(-c2ccccc2)cc1)N1CCn2c(nnc2-c2csc(-c3cccs3)n2)C1 [Compound 195, [1,1′-biphenyl]-4-yl(3-(2-(thiophen-2-yl)thiazol-4-yl)-5,6-dihydro-[1,2,4]triazolo[4,3-a]pyrazin-7(8H)-yl)methanone]",< 500 nM
4,"CC1c2nnc(-c3ccc4ccccc4n3)n2CCN1C(=O)c1ccc(-c2cccs2)cc1 (stereo not shown) [Compound 65, (8-methyl-3-(quinolin-2-yl)-5,6-dihydro-[1,2,4]triazolo[4,3-a]pyrazin-7(8H)-yl)(4-(thiophen-2-yl)phenyl)methanone]",< 500 nM
5,"O=C(c1ccc(F)cc1)N1CCn2c(nnc2-c2csc(-c3ccc(F)cc3F)n2)C1 [Compound 29, (3-(2-(2,4-difluorophenyl)thiazol-4-yl)-5,6-dihydro-[1,2,4]triazolo[4,3-a]pyrazin-7(8H)-yl)(4-fluorophenyl)methanone]",< 500 nM
6,"CC1c2nnc(-c3csc(-c4ccc(F)cc4)n3)n2CCN1C(=O)c1ccc(F)c(F)c1 (stereo not shown) [Compound 110, (3,4-difluorophenyl)(3-(2-(4-fluorophenyl)thiazol-4-yl)-8-methyl-5,6-dihydro-[1,2,4]triazolo[4,3-a]pyrazin-7(8H)-yl)methanone]",< 500 nM
7,"CC1c2nnc(-c3csc(-c4ccc(F)cc4F)n3)n2CCN1C(=O)c1ccc(-c2cccs2)cc1 (stereo not shown) [Compound 80, (3-(2-(2,4-difluorophenyl)thiazol-4-yl)-8-methyl-5,6-dihydro-[1,2,4]triazolo[4,3-a]pyrazin-7(8H)-yl)(4-(thiophen-2-yl)phenyl)methanone]",< 500 nM
8,"O=C(c1ccc(-c2ccccc2)cc1)N1CCn2c(nnc2-c2nc(-c3ccccc3)no2)C1 [Compound 217, [1,1′-biphenyl]-4-yl(3-(3-phenyl-1,2,4-oxadiazol-5-yl)-5,6-dihydro-[1,2,4]triazolo[4,3-a]pyrazin-7(8H)-yl)methanone]",< 500 nM
9,"O=C(c1ccc(-c2cccs2)cc1)N1CCn2c(nnc2-c2csc(-c3ccccc3F)n2)C1 [Compound 181, (3-(2-(2-fluorophenyl)thiazol-4-yl)-5,6-dihydro-[1,2,4]triazolo[4,3-a]pyrazin-7(8H)-yl)(4-(thiophen-2-yl)phenyl)methanone]",< 500 nM
10,"O=C(c1ccc(F)cc1)N1CCn2c(cnc2-c2csc(-c3ccc(F)cc3)n2)C1 [Compound 260, (4-fluorophenyl)(3-(2-(4-fluorophenyl)thiazol-4-yl)-5,6-dihydroimidazo[1,5-a]pyrazin-7(8H)-yl)methanone]",< 500 nM
11,"O=C(c1ccc(-c2cccs2)cc1)N1CCn2c(nnc2-c2csc(-c3cnccn3)n2)C1 [Compound 235, (3-(2-(pyrazin-2-yl)thiazol-4-yl)-5,6-dihydro-[1,2,4]triazolo[4,3-a]pyrazin-7(8H)-yl)(4-(thiophen-2-yl)phenyl)methanone]",< 500 nM
12,"C[C@@H]1c2nnc(-c3coc(-c4ccccc4)n3)n2CCN1C(=O)c1ccc(-c2ccccc2)cc1 [Compound 131, (R)-[1,1′-biphenyl]-4-yl(8-methyl-3-(2-phenyloxazol-4-yl)-5,6-dihydro-[1,2,4]triazolo[4,3-a]pyrazin-7(8H)-yl)methanone]",< 500 nM
13,"O=C(c1ccc(F)cc1)N1CCn2c(nnc2-c2csc(-c3ccccc3)n2)C1 [Compound 8, (4-fluorophenyl)(3-(2-phenylthiazol-4-yl)-5,6-dihydro-[1,2,4]triazolo[4,3-a]pyrazin-7(8H)-yl)methanone]",< 500 nM

# From US10544150B2, “NK-3 receptor selective antagonist compounds, pharmaceutical composition and methods for use in NK-3 receptors mediated disorders” (Ogeda SA, priority 2010, dated 2020)
